Measurements taken from PubChem BioAssay AID1918999 (Molecular Pharmacology Branch, DTP, NCI, 2023).
Several values for one entry are separate records, joined by “and”; a condition that tells them apart may be missing. Identical values can stand only once. Values belong to the compound of their own block, whether it stands above or below them.

Tested on: 556581-035-R-J1-PDC complex spheroid growth
Assay: Anticancer human tumor 556581-035-R-J1-PDC patient-derived ovarian carcinoma cell line growth inhibition [AhR]
Details: for viability, T/C: stronger effect = lower value
From the text: Multicellular complex tumor spheroid response to aryl hydrocarbon receptor antagonists in combination with a variety of drugs and investigational agents in selected tumor cell lines
The current study was undertaken to assess response to aryl hydrocarbon receptor antagonists in combination with standard-of-care drugs and investigational agents in solid tumor complex spheroid models. Complex spheroids include a stromal component modeled by human endothelial cells (HUVEC) and fibroblasts modeled by human mesenchymal stem cells (MSCs). The concentration ranges selected for each drug and investigational agent were based upon clinically achievable concentrations if the clinical Cmax of the agent was known.
Compounds. The drugs and investigational agents: BAY 2416964 (NSC825713), GNF351 (NSC835774), CH-223191 (NSC835775), CPI-455 (NSC825282), aza-TdCyd (NSC777586), decitabine (NSC127716), belinostat (NSC758774), entinostat (NSC756642), pevonedistat (NSC761192), tazemetostat (NSC777109), talazoparib (NSC765396), olaparib (NSC753686), selinexor (NSC780203), nedisertib (M3814, NSC802822), bortezomib (NSC756655), venetoclax (NSC766270), doxorubicin (NSC123127), elimusertib (BAY189344, NSC800525), ceralasertib (AZD6738, NSC777638), TAK-243 (NSC785004), alisertib (NSC759677), etoposide (NSC141540), topotecan (NSC609699), eribulin (NSC707389), gemcitabine (NSC613327), carboplatin (NSC241240), cisplatin (NSC119875), and SN-38 (NSC673596) were obtained from the National Cancer Institute (NCI) Developmental Therapeutics Program Chemical Repository (32). The FDA-approved anticancer drug set is available from the Developmental Therapeutics Program at https://dtp.cancer.gov/organization/dscb/obtaining/available plates.htm. […] The stock solutions were prepared in dimethyl sulfoxide (DMSO, Sigma-Aldrich, St. Louis, MO, cat. D2650), except for the platinum compounds which were prepared in saline (Quality Biological, Gaithersburg, MD, cat. 114-055-101), at 800-fold the tested concentration and stored at -70 degrees C prior to their use. All drugs and investigational agents were tested over a range starting from a high concentration at or near the clinical Cmax and decreasing in half-log increments. If the clinical Cmax for an agent had not been determined, the highest concentration tested was 10 microM (Table 1).
Cell Culture. All cells were maintained in an incubator at 37 degrees C and 5% CO2 with 95% humidity. The PDC lines were cultured according to standard operating procedures established by the NCI PDMR (https://pdmr.cancer.gov). Briefly, all PDCs were thawed and cultured in Matrigel-coated flasks prepared with a working solution of 1X Ham's F-12 nutrient mix, without supplementation (Invitrogen, Waltham, MA, cat. 11765054), 100 U/mL penicillin-streptomycin (Invitrogen, cat. 15140122), and 2.5% Matrigel (Corning Inc., Corning, NY, cat. 354248) for the first three passages. All PDCs were cultured in complete DMEM/F-12 media containing advanced DMEM/F-12 (Invitrogen, cat. 12634028), 4.9% defined fetal bovine serum, heat inactivated (HyClone Laboratories Inc., Logan, UT, cat. SH30070.03HI), 389 ng/mL hydrocortisone (Sigma-Aldrich, cat. H4001), 9.7 ng/mL human EGF recombinant protein (Invitrogen, cat. PHG0313), 23.4 microg/mL adenine (Sigma-Aldrich, cat. A2786), 97.3 U/mL penicillin-streptomycin (Invitrogen, cat. 15140122), 1.9 mM L-glutamine (Invitrogen, cat. 25030081), and 9.7 microM Y-27632 dihydrochloride (Tocris Bioscience, Bristol, United Kingdom, cat. 1254). The PDCs were cultured in complete DMEM/F12 media without 10 microM Y-27632 dihydrochloride for at least two passages prior to the screen. The established cell lines NCI-H1341 and […] were cultured in DMEM/F-12, HEPES (Invitrogen, cat. 11330032), 5% defined fetal bovine serum (HyClone Laboratories Inc., cat. SH30070.03), ITS premix universal culture supplement [insulin (5 microg/mL), transferrin (5 microg/mL), and selenious acid (5 ng/mL)] […]
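Throughout, for viability, T/C: compound exposure lasted 7 days; 100% = DMSO vehicle control growth.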

IC50 (curve of compound): 5.87 nM and 5.61 nM and 4.98 nM
SMILES: CC(C)CC(NC(=O)C(Cc1ccccc1)NC(=O)c1cnccn1)B(O)O (configuration not stated)
viability, T/C (compound 0.000949 µM): 105% and 95.7% and 87.9%
viability, T/C (compound 0.003 µM): 101% and 97.8% and 87.1%
viability, T/C (compound 0.00949 µM): 13.2% and 10.6% and 2.65%
viability, T/C (compound 0.03 µM): 1.02% and 0.36% and 1.1%
viability, T/C (compound 0.0949 µM): 0.22% and 0.29% and 0.24%
viability, T/C (compound 0.3 µM): 0.28% and 0.29% and 0.34%

IC50 (curve of first compound, second compound 0.1 µM): 5 nM
IC50 (curve of first compound, second compound 0.316 µM): 4.57 nM
IC50 (curve of first compound, second compound 1 µM): 5.43 nM
IC50 (curve of first compound, second compound 3.16 µM): 4.7 nM
IC50 (curve of first compound, second compound 10 µM): 5.22 nM
SMILES: CC(C)CC(NC(=O)C(Cc1ccccc1)NC(=O)c1cnccn1)B(O)O (configuration not stated) + CC(CO)NC(=O)c1cc(-c2ccc(Cl)cc2)nn(-c2cnn(C)c2)c1=O
viability, T/C (second compound 0.1 µM, first compound 0.000949 µM): 91.6%
viability, T/C (second compound 0.1 µM, first compound 0.003 µM): 88.4%
viability, T/C (second compound 0.1 µM, first compound 0.00949 µM): 1.95%
viability, T/C (second compound 0.1 µM, first compound 0.03 µM): 0.49%
viability, T/C (second compound 0.1 µM, first compound 0.0949 µM): 0.12%
viability, T/C (second compound 0.1 µM, first compound 0.3 µM): 0.33%
viability, T/C (second compound 0.316 µM, first compound 0.000949 µM): 106%
viability, T/C (second compound 0.316 µM, first compound 0.003 µM): 77.9%
viability, T/C (second compound 0.316 µM, first compound 0.00949 µM): 1.51%
viability, T/C (second compound 0.316 µM, first compound 0.03 µM): 2.26%
viability, T/C (second compound 0.316 µM, first compound 0.0949 µM): 0.2%
viability, T/C (second compound 0.316 µM, first compound 0.3 µM): 0.8%
viability, T/C (second compound 1 µM, first compound 0.000949 µM): 105%
viability, T/C (second compound 1 µM, first compound 0.003 µM): 99.7%
viability, T/C (second compound 1 µM, first compound 0.00949 µM): 3.31%
viability, T/C (second compound 1 µM, first compound 0.03 µM): 0.19%
viability, T/C (second compound 1 µM, first compound 0.0949 µM): 0.15%
viability, T/C (second compound 1 µM, first compound 0.3 µM): 0.27%
viability, T/C (second compound 3.16 µM, first compound 0.000949 µM): 85.7%
viability, T/C (second compound 3.16 µM, first compound 0.003 µM): 81%
viability, T/C (second compound 3.16 µM, first compound 0.00949 µM): 0.92%
viability, T/C (second compound 3.16 µM, first compound 0.03 µM): 2.07%
viability, T/C (second compound 3.16 µM, first compound 0.0949 µM): 1.26%
viability, T/C (second compound 3.16 µM, first compound 0.3 µM): 1.55%
viability, T/C (second compound 10 µM, first compound 0.000949 µM): 99.6%
viability, T/C (second compound 10 µM, first compound 0.003 µM): 94.2%
viability, T/C (second compound 10 µM, first compound 0.00949 µM): 2.36%
viability, T/C (second compound 10 µM, first compound 0.03 µM): 0.3%
viability, T/C (second compound 10 µM, first compound 0.0949 µM): 0.55%
viability, T/C (second compound 10 µM, first compound 0.3 µM): 0.95%
